The source of these data is patent publication US11040976B2, “Substrate selective inhibitors of insulin-degrading enzyme (IDE) and uses thereof” (President and Fellows of Harvard College, priority 2015, dated 2021).

As a reminder, the IC50 is the point on the concentration scale where inhibition reaches its midpoint.

Structures can show the parent of a compound that is named as a salt. Where two headings read alike, the source gives them in different places.

For the experiment, the target named is T1, recombinant human IDE42-1019 (Homo sapiens, UniProt P14735).
T1 construct: recombinant human IDE42-1019 (R&D Systems); purchased R&D Systems
T1 sequence (P14735 42-1019): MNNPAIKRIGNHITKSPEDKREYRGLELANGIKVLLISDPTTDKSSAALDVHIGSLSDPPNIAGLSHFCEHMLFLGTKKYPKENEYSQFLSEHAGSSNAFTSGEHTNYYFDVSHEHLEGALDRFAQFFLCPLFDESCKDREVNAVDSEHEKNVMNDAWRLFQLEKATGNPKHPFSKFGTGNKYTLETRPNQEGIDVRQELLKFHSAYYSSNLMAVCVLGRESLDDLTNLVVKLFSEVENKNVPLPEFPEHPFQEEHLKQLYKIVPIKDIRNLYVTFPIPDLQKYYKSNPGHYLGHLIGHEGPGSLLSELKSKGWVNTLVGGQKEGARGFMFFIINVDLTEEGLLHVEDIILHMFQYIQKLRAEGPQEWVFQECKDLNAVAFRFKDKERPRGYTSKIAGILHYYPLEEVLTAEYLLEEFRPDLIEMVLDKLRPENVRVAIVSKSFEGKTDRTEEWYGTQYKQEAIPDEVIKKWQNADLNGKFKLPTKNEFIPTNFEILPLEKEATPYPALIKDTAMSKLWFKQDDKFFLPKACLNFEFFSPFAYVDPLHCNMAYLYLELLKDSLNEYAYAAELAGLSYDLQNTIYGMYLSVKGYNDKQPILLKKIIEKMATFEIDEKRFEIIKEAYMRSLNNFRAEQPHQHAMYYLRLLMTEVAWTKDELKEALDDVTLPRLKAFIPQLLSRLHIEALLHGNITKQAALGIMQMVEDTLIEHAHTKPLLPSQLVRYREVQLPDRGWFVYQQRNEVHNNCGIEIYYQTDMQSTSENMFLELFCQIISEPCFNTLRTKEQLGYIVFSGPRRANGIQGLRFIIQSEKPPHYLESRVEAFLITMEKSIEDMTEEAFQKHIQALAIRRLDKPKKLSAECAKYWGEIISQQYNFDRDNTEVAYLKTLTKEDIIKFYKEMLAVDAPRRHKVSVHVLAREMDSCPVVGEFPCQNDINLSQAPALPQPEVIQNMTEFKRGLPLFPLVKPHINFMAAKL
As to the kind of experiment: Protease assay with fluorogenic peptide substrate Mca-[…](Dnp)-OH. The class given is biochemical. The note with it: for Imax (%) Proteolysis (inhibition maximum) / Emax: plateau at high inhibitor concentration; for Emax: read-out: Imax (%) Proteolysis (inhibition maximum). The procedure:
The proteases IDE42-1019, recombinant human IDE42-1019 (R&D Systems), neprilysin (R&D), and angiotensin-converting enzyme (R&D) were assayed using the fluorophore/quencher-tagged peptide substrate Mca-[…](Dnp)-OH (SEQ ID NO: 24) (R&D) according to the manufacturer's instructions and using the recommended buffers (fluorophore Mca=(7-methoxycourmarin-4-yl)acetyl and quencher Dnp=2,4-dinitrophenyl). For IDE the recommended buffer is 50 mM Tris pH 7.5, 1 M NaCl. The enzyme mixtures (48 μL) were transferred to a 96-well plate and combined with 2 μL of inhibitor in DMSO solutions, in 3-fold dilution series. The mixtures were allowed to equilibrate for 10 minutes and the enzymatic reaction was started by addition of substrate peptide in assay buffer (50 μL), mixed, and monitored on a fluorescence plate reader (excitation at 320 nm, emission at 405 nm). Similarly, thimet oligopeptidase (R&D) and neurolysin (R&D) were assayed using substrate Mca-PLGPK(Dnp)-OH (SEQ ID NO: 25) (R&D) according to the manufacturer's instructions and using the recommended buffers. Matrix metalloproteinase-1 (R&D) was activated and assayed according to the manufacturer's instructions with substrate Mca-KPLGL-Dpa-AR-NH2 (SEQ ID NO: 20) (R&D) (quencher DPA=N-3-(2,4,dinitrophenyl)-L-2,3-diaminopropionyl). All assay data points were obtained in duplicate.

The mark [1] stands for this setting: fluorogenic peptide Mca-RPPGFSAFK(Dnp)-OH, apparent IC50 for compounds with submaximal inhibition, read-out: IC50 (μM) Proteolysis.
The mark [2] stands for this setting: fluorogenic peptide Mca-RPPGFSAFK(Dnp)-OH.

For the compound `Cc1cccc(-c2ccc([C@@H]3[C@@H](CO)N4CCCCN(S(=O)(=O)c5ccccc5C)C[C@@H]34)cc2)c1` [B2], the half-inhibitory concentration (IC50) under setting [1] worked out at 0.4 µM. Further, under setting [2], the “Imax (%) Proteolysis (inhibition maximum)” value turned out to be 65%.

In the case of `O=C(NC1CCCC1)N1CCCCN2[C@@H](CO)[C@H](c3ccc(/C=C/c4ccccc4)cc3)[C@@H]2C1` [compound 346], the 50% inhibitory concentration (IC50) under setting [1] is 1.5 µM. The Emax under setting [2] turned out to be 80%.

`Cc1cccc(-c2ccc(C3CCN(Cc4ccc(OCc5ccccc5)cc4)CC3)cc2)c1C` [A34]: under setting [1], the IC50 was more than 50 µM.

With `Cc1cccc(-c2ccc(C3CCN(S(=O)(=O)c4cccc5c(N(C)C)cccc45)CC3)cc2)c1C` [A11], the IC50 under setting [1] was found to be 10 µM.

Consider `Cc1ccccc1-c1ccc([C@@H]2[C@@H](CO)N3CCCCN(S(=O)(=O)c4ccccc4C)C[C@@H]23)cc1` [B13], for which the “Imax (%) Proteolysis (inhibition maximum)” value under setting [2] is 65%.

`COc1ccc(-c2ccc([C@@H]3[C@@H](CO)N4CCCCN(S(=O)(=O)c5ccccc5C)C[C@@H]34)cc2)c(C)c1` [K17]: the 50% inhibitory concentration (IC50) under setting [1] was 0.9 µM.

Regarding `Cc1cccc(-c2ccc(C3CCN(S(=O)(=O)c4cccnc4)CC3)cc2)c1C` [A16], under setting [1], the IC50 was 12 µM.

On to `Cc1cccc(-c2ccc(C3CCN(C(=O)c4ccc5ccccc5n4)CC3)cc2)c1C` [A28], for which the IC50 under setting [1] was 1 µM.

`COC[C@@H]1[C@@H](c2ccc(-c3ccc(F)c(C)c3C)cc2)[C@@H]2CN(S(=O)(=O)c3nccn3C)CCCCN12` [JP-43-OMe]: the IC50 under setting [1] is 0.15 µM.

As for `Cc1ccccc1S(=O)(=O)N1CCCCN2[C@H](CO)[C@@H](c3ccc(-c4cccc(F)c4C)cc3)[C@@H]2C1` [K20], under setting [1], the half-maximal inhibitory concentration (IC50) was found to be 0.1 µM.

Take `Cc1ccccc1S(=O)(=O)N1C/C=C\CN2C(C1)[C@H](c1ccc(-c3cccc(Cl)c3C)cc1)[C@H]2CO` (some centres unmarked) [JP-28]: the IC50 under setting [1] worked out at 0.003 µM.

With `Cc1ccccc1S(=O)(=O)N1CCCCN2[C@H](CF)[C@@H](c3ccc(-c4cccc(C)c4C)cc3)[C@@H]2C1` [K28], the IC50 under setting [1] came to 0.05 µM.

On to `COc1cccc(-c2ccc([C@H]3C4CN(S(=O)(=O)c5ccccc5C)CCCCN4[C@@H]3CO)cc2)c1` (some centres unmarked) [K3], for which the Emax under setting [2] was determined as 65%.

Regarding `Cc1ccccc1S(=O)(=O)N1CCCCN2C(C1)[C@H](c1ccc(-c3cnc(F)c(C)c3)cc1)[C@H]2CO` (some centres unmarked) [K26], the Emax under setting [2] stood at 100%.

For `CNC[C@@H]1[C@@H](c2ccc(-c3cccc(C)c3C)cc2)[C@@H]2CN(S(=O)(=O)c3ccccc3C(F)(F)F)CCCCN12` [JP-17-NHMe], under setting [1], the IC50 came to 0.007 µM.

Regarding `Cc1cc(O)ccc1-c1ccc([C@@H]2[C@@H](CO)N3CCCCN(S(=O)(=O)c4ccccc4C)C[C@@H]23)cc1` [JP-31], under setting [1], the IC50 was determined as 3 µM.

With `Cc1cccc(-c2ccc(C3CCN(C(=O)c4ccccc4Oc4ccccc4)CC3)cc2)c1C` [A23], the concentration for half-maximal inhibition (IC50) under setting [1] came out at 10 µM.

On to `Cc1cccc(-c2ccc([C@H]3C4CN(S(=O)(=O)c5cnc(C)n5C)C/C=C\CN4[C@@H]3CO)cc2)c1C` (some centres unmarked) [JP-S18], for which the IC50 under setting [1] worked out at 0.002 µM.

As for `Cc1cccc(-c2ccc([C@@H]3[C@@H](CO)N4CCCCN(S(=O)(=O)c5ccnn5C)C[C@@H]34)cc2)c1C` [JP-S24], the half-inhibitory concentration (IC50) under setting [1] was 0.01 µM.

As to `COC[C@@H]1[C@@H](c2ccc(-c3ccc(F)c(C)c3C)cc2)[C@@H]2CN(S(=O)(=O)c3ccccc3C(F)(F)F)CCCCN12` [JP-41-OMe], the IC50 under setting [1] came to 0.09 µM.

As to `CCC(=O)N1[C@H](CO)[C@H](c2ccc(-c3ccccc3OC)cc2)[C@@H]1CNC(C)=O` [D3], the IC50 under setting [1] amounted to 7 µM. For the same compound, the Emax under setting [2] stood at 50%.

`Cc1ccccc1S(=O)(=O)N1CCCCN2[C@H](CO)[C@@H](c3ccc(-c4cccc(C)c4C)cc3)[C@@H]2C1` [B8]: the IC50 (fluorogenic peptide, FIG. 12, read-out: IC50 for proteolysis) is 0.002 µM.

Turning to `Cc1cc(C)cc(-c2ccc([C@@H]3[C@@H](CO)N4CCCCN(S(=O)(=O)c5ccccc5C)C[C@@H]34)cc2)c1` [K10], the IC50 under setting [1] stood at 0.1 µM.

For the compound `Cc1cc(C)cc(-c2ccc([C@@H]3[C@@H](CO)N4CCCCN(S(=O)(=O)c5ccccc5C)C[C@@H]34)cc2)c1` [B9], the Emax under setting [2] amounted to 72%.

In the case of `Cc1ccccc1S(=O)(=O)N1CCCCN2[C@H](CO)[C@@H](c3ccc(-c4cnc(F)c(C)c4)cc3)[C@@H]2C1` [K26], the half-inhibitory concentration (IC50) under setting [1] is 4 µM.

Turning to `Cc1c(F)ccc(-c2ccc([C@@H]3[C@@H](CO)N4CCCCN(S(=O)(=O)c5ccccc5C(F)(F)F)C[C@@H]34)cc2)c1C` [JP-41], the half-inhibitory concentration (IC50) under setting [1] was determined as 0.03 µM.

For `Cc1cccc(-c2ccc(N3CCN(C(=O)C4CCCC4)CC3)cc2)c1C` [J10], under setting [1], the IC50 is 2.5 µM.

On to `COc1ccccc1-c1ccc([C@H]2C3CN(S(=O)(=O)c4ccccc4C)CCCCN3[C@@H]2CO)cc1` (some centres unmarked) [K14], for which the IC50 under setting [1] worked out at 0.3 µM. Also, under setting [2], the Emax worked out at 65%.

With `CCCn1nccc1S(=O)(=O)N1C/C=C\CN2C(C1)[C@H](c1ccc(-c3cccc(C)c3C)cc1)[C@H]2CO` (some centres unmarked) [JP-S16], under setting [1], the IC50 was 0.03 µM.

For `Cc1ccccc1S(=O)(=O)N1CCC(O)(c2ccc(-c3cccc(C)c3C)cc2)CC1` [J2], the IC50 under setting [1] was 2.5 µM.

Turning to `Cc1ccccc1S(=O)(=O)N1CCCCN2C(C1)[C@H](c1ccc(-c3cccc(C)c3C)cc1)[C@H]2CO` (some centres unmarked) [K9], the Emax under setting [2] amounted to 65%.

Take `Cc1cccc(-c2ccc([C@@H]3[C@@H](CF)N4CCCCN(S(=O)(=O)c5ccccc5C(F)(F)F)C[C@@H]34)cc2)c1C` [JP-18 TFA salt]: the concentration for half-maximal inhibition (IC50) under setting [1] came out at 0.01 µM.

In the case of `Cc1cccc(-c2ccc(C3CCN(S(=O)(=O)c4ccc5[nH]c(=O)[nH]c5c4)CC3)cc2)c1C` [A15], the 50% inhibitory concentration (IC50) under setting [1] came out at 4 µM.

As for `Cc1cccc(-c2ccc(C3CCN(S(=O)(=O)c4ccccc4Oc4ccccc4)CC3)cc2)c1C` [A04], under setting [1], the 50% inhibitory concentration (IC50) was 12 µM.

For `COc1cccc(-c2ccc([C@@H]3[C@@H](CO)N4CCCCN(S(=O)(=O)c5ccccc5C)C[C@@H]34)cc2)c1` [K3], the IC50 under setting [1] was found to be 0.4 µM.

In the case of `Cc1cccc(-c2ccc([C@H]3[C@H](CO)N4C(=O)CN(C(=O)NC5CCCCC5)C[C@@H]34)cc2)c1` [compound 130], the IC50 under setting [1] is more than 5 µM. In addition, under setting [2], the Emax stood at 60%.

Regarding `COC[C@@H]1[C@@H](c2ccc(-c3cccc(C)c3C)cc2)[C@@H]2CN(S(=O)(=O)c3ccc[n+](C)c3C)CCCCN12` [JP-S21-diMe], the half-maximal inhibitory concentration (IC50) under setting [1] was more than 0.2 µM.

`Cc1ccccc1-c1ccc([C@@H]2[C@H](CO)N3CCCCN(C(=O)Cc4ccccn4)C[C@@H]23)cc1` [compound 469]: under setting [2], the Emax is 80%.

In the case of `Cc1cccc(-c2ccc(C3CCN(Cc4ccc(F)c5ccccc45)CC3)cc2)c1C` [A35], the 50% inhibitory concentration (IC50) under setting [1] came out at 12 µM.

Take `Cc1ccccc1S(=O)(=O)N1CCCCN2[C@H](CO)[C@@H](c3ccccc3)[C@@H]2C1` [K2]: the half-maximal inhibitory concentration (IC50) under setting [1] was more than 100 µM.

Take `Cc1cccc(-c2ccc(C3CCN(S(=O)(=O)c4ccc5c(c4)Cc4ccccc4-5)CC3)cc2)c1C` [A08]: the concentration for half-maximal inhibition (IC50) under setting [1] came out at 25 µM.

As to `COC[C@@H]1[C@@H](c2ccc(-c3cccc(C)c3C)cc2)[C@@H]2CN(S(=O)(=O)c3ccnn3C(C)C)CCCCN12` [JP-S10-OMe], the IC50 under setting [1] is more than 0.2 µM.

As to `Cc1ccccc1S(=O)(=O)N1CCCCN2[C@H](CO)[C@@H](c3ccc(-c4cccc(O)c4)cc3)[C@@H]2C1` [B7], the half-maximal inhibitory concentration (IC50) under setting [1] is 7.5 µM. For the same compound, under setting [2], the Emax came out at 100%.

Take `Cc1cccc(-c2ccc(C3CCN(C(=O)c4ccc5occc5c4)CC3)cc2)c1C` [A26]: the IC50 under setting [1] turned out to be 6 µM.

On to `COc1cc(N)ccc1S(=O)(=O)N1CCCCN2[C@H](CO)[C@@H](c3ccc(-c4cccc(C)c4C)cc3)[C@@H]2C1` [JP-S5], for which the 50% inhibitory concentration (IC50) under setting [1] came to 0.5 µM.

Turning to `Cc1ccccc1S(=O)(=O)N1CCCCN2[C@H](CO)[C@@H](c3ccc(-c4ccccc4)cc3)[C@@H]2C1` [B6], the half-maximal inhibitory concentration (IC50) under setting [1] is 1 µM. The Emax under setting [2] came to 65%.
